From US5015661A, “Chromanes and their pharmaceutical compositions and methods” (Hoffmann-La Roche Inc., priority 1989, dated 1991) come the findings set out here.

SMILES strings stand for the structures.

The assay relates to arachidonic acid-induced mouse ear edema. In words: Mouse ear edema test (in vivo), arachidonic acid-induced. The conditions noted are these: 1 mg topical, CD-1 male mice, 0.5 mg arachidonic acid 0.5 or 4 hours later, ear biopsy weight after 1 hour, read-out: EAR EDEMA % INHIB. 1 mg. The protocol:
MOUSE EAR EDEMA TEST (IN VIVO)
In this animal model system, the application of arachidonic acid to the ear results in the biosynthesis of the metabolic products […]-6,8,11,14-eicosatetraenoic acid (5-HETE), leukotriene B4 (LTB4), leukotriene C4 (LTC4), […]-5,8,10,14-eicosatetraenoic acid (12-HETE), and prostaglandin E2 (PGE2) at the site of application, followed by the influx of neutrophils into the site and the rapid development of edema within 30 to 60 minutes (See, for instance, Young, Wagner and Spries, "Tachyphylaxis in 12-O-Tetradecanoylphorbol Acetate And Arachidonic Acid-Induced Ear Edma," J. Invest. Dermatol. 80:48 (1983) and Hames, Opas and Bonney, "Arachidonic Acid MetaboIites in Mouse Ear Edma" Advances in Inflammation Research. 11:57 (1986).
CD-1 male mice weighing 15 to 25 g were employed, and they were designated as follows: (1) Control Group, in which no arachidonic acid or test compound was to be applied, (2) Arachidonic Acid-Treated Group, in which no test compound was to be applied, and (3) Treated Group, in which the test compound was to be applied first, followed by the application of arachidonic acid.
In the case of the Group (3) animals, the test compound, dissolved in acetone, was applied to the dorsal surface of the right ear of the mouse with a 25-microliter pipette or, with the dose of the test compound being varied. After 0.5 hours in some cases and 4 hours in others, the arachidonic acid was topically applied in the same manner as above to the pretreated ear areas. In each case of arachidonic acid application, an amount of 0.5 mg dissolved in 25 microliters of acetone was used. After 1 hour, the mice were sacrificed by carbon dioxide inhalation. A 6mm-diameter standard biopsy punch was used to obtain a uniform tissue sample from the ear of each mouse so treated, and the tissue samples were weighted to the nearest 0.1 mg. The percent inhibition of ear edema formation was calculated as follows: [formula]
For `Cc1c(C)c2c(c(C)c1O)CCC(C)(C#Cc1ccccc1)O2` (racemic) [Example 1, rac-3,4-Dihydro-2,5,7,8-tetramethyl-2-(phenylethynyl)-2H-1-benzopyran-6-ol], the inhibition in vivo at 1 mg was 45%. With `Cc1c(C)c2c(c(C)c1O)CCC(C)(C#Cc1cccs1)O2` (racemic) [Example 4, rac-3,4-Dihydro-2,5,7,8-tetramethyl-2-[(2-thienyl)ethynyl]-2H-1-benzopyran-6-ol] the figure was 61%; with `Cc1c(C)c2c(c(C)c1O)CCC(C)(C#Cc1cccnc1)O2` (racemic) [Example 14, rac-3,4-Dihydro-2,5,7,8-tetramethyl-2-[(3-pyridinyl)ethynyl]-2H-1-benzopyran-6-ol], 20%. Regarding `Cc1c(C)c2c(c(C)c1O)CCC(C)(C#Cc1ccccn1)O2` (racemic) [Example 15, rac-3,4-Dihydro-2,5,7,8-tetramethyl1-2-[(2-pyridinyl)ethynyl]-2H-1-benzopyran-6-ol], the inhibition in vivo at 1 mg amounted to 18%.

For `Cc1c(C)c2c(c(C)c1O)CCC(C)(C#Cc1csc3ccccc13)O2` (racemic) [Example 16, rac-[2-(Benzo[b]thiophen-3-yl)ethynyl]-3.4-dihydro-2,5,7,8-tetramethyl-2H-1-benzopyran-2H-1-benzopyran-6-ol], the inhibition in vivo at 1 mg turned out to be 62%.

With `CCCCc1ccc(C#CC2(C)CCc3c(C)c(O)c(C)c(C)c3O2)s1` (racemic) [Example 31, rac-2-[(5-Butyl-2-thienyl)ethynyl]-3,4-dihydro-2,5,7,8-tetramethyl-2H-1-benzopyran-6-ol], the inhibition in vivo at 1 mg was 24%. As for `Cc1c(C)c2c(c(C)c1O)CCC(C)(C#Cc1cccc(C(F)(F)F)c1)O2` (racemic) [Example 35, rac-2-{[3-(Trifluoromethyl)phenyl]ethynyl-3,4-dihydro-2,5,7,8-tetramethyl-2H-1-benzopyran-6-ol], the inhibition in vivo at 1 mg turned out to be 15%. Turning to `CC(=O)Oc1cc(C#CC2(C)CCc3c(C)c(O)c(C)c(C)c3O2)ccc1OCc1ccccc1` (racemic) [Example 41, rac-2-{[3-Acetyloxy-4-(phenylmethoxy)phenyl]ethynyl}-3,4-dihydro-2,5,7,8-tetramethyl-2H-1-benzopyran-6-ol], the inhibition in vivo at 1 mg was found to be 31%. As for `Cc1c(C)c2c(c(C)c1O)CCC(C)(C#Cc1ccc(OCc3ccccc3)c(O)c1)O2` (racemic) [Example 43, rac-3,4-Dihydro-2-{[3-hydroxy-4-(phenylmethoxY)phenyl]-ethynyl}-2,5,7,8-tetramethyl-2H-1-benzopyran-6-ol], the figure is 31%; as for `Cc1c(C)c2c(c(C)c1O)CCC(C)(c1cc3ccccc3o1)O2` (racemic) [Example 50 (CH; H, H, H), rac-2-(2-Benzofuranyl)-3,4-dihydro-2,5,7,8-tetramethyl-2H-1-benzopyran-6-ol], 68%. As for `Cc1ccc2oc(C3(C)CCc4c(C)c(O)c(C)c(C)c4O3)cc2n1` (racemic) [Example 51, rac-3,4-Dihydro-2-(5-methylfuro[3,2[b]pyridin-2-yl)-2,5,7,8-tetramethyl-2H-1-benzopyran-6ol], the inhibition in vivo at 1 mg is 69%.

Regarding `Cc1c(C)c2c(c(C)c1O)CCC(C)(c1cc3ncccc3o1)O2` (racemic) [Example 52, rac-3,4-Dihydro-2-(furo[3,2-b]pyridine-2-yl)-2,5,7,8-tetramethyl-2H-1-benzopyran-6-ol], the inhibition in vivo at 1 mg is 49%. In the case of `CCCc1c(O)c(C(C)=O)cc2cc(C3(C)CCc4c(C)c(O)c(C)c(C)c4O3)oc12` (racemic) [Example 53, rac-1-2-(3,4-Dihydro-6-hydroxy-2,5,7,8-tetramethyl-2H-1-benzopyran-2-yl)-6-hydroxy-7-propylbenzofuran-5-yl]ethanone], the inhibition in vivo at 1 mg is 54%. With `Cc1c(C)c2c(c(C)c1O)CCC(C)(CCc1cccs1)O2` (racemic) [Example 57, rac-3,4-Dihydro-2,5,7,8-tetramethyl-2-[2-(2-thienyl)ethyl]-2H-1-benzo-pyran-6-ol] the figure was 41%; with `Cc1c(C)c2c(c(C)c1O)CCC(C)(CCc1ccccn1)O2` (racemic) [Example 58, rac-3,4-Dihydro-2,5,7,8-tetramethyl-2-[2-(2-pyridinyl)ethyl]-2H-1-benzopyran-6-ol], 31%. With `Cc1c(C)c2c(c(C)c1O)CCC(C)(CCc1cccnc1)O2` (racemic) [Example 59, rac-3,4-Dihydro-2,5,7,8-tetramethyl-2-[2-(3-pyridinyl)ethyl]-2H-1-benzopyran-6-ol] the figure was 48%; with `Cc1c(C)c2c(c(C)c1O)CCC(C)(CCc1ccc(O)c(O)c1)O2` (racemic) [Example 61, rac-4-[2-(3,4-Dihydro-6-hydroxy-2,5,7,8-tetramethyl-2H-1-benzopyran-2-yl)ethyl]-1,2-benzenediol], 55%; with `Cc1c(C)c2c(c(C)c1O)CC[C@](C)(C#Cc1cccs1)O2` [Example 5, (R)-3,4-Dihydro-2,5,7,8-tetramethyl-2-[(2-thienyl)ethynyl]-2H-1-benzopvran-6-ol], 66%. With `Cc1c(C)c2c(c(C)c1O)CC[C@@](C)(C#Cc1cccs1)O2` [Example 13, (S)-3,4-Dihydro-2,5,7,8-tetramethyl-2-[(2-thienyl)ethynyl]-2H-1-benzopyran-6-ol] the figure was 32%.
